Consider 10 compounds from patent US20210230123A1, “INHIBITORS OF ALPHA-AMINO-BETA-CARBOXYMUCONIC ACID SEMIALDEHYDE DECARBOXYLASE” (TES Pharma S.r.l., priority 2016, published 2021).

T1 sequence (Q8TDX5 whole entry): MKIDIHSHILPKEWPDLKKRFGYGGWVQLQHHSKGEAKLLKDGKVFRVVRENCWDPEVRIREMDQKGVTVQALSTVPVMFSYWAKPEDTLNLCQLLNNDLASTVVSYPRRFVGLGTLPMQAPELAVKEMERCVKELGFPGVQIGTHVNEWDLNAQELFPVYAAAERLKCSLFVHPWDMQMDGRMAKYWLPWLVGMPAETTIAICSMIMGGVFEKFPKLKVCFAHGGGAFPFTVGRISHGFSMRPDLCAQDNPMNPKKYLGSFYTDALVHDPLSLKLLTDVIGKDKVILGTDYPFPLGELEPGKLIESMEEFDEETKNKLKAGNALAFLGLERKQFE

This assay concerns the target T1, hACMSD (Homo sapiens, UniProt Q8TDX5).
T1 construct: made in house; host or cells: Pichia pastoris
In words: Determination of ACMSD1 inhibition (spectrophotometrical in vitro assay). Format: biochemical. The following applies: HAA concentration of 10 μM, 25° C. How it is done:
The activity of compounds as inhibitors of ACMSD1 is determined in a spectrophotometrical in vitro assay. The pre-assay mixture is incubated and a compound of Formula (I), Formula (Ia), Formula (Ib), Formula (Ic), Formula (Id), Formula (Ie), Formula (If), Formula (Ig), Formula (Ih), Formula (Ii), Formula (Ij), Formula (II), Formula (IIa), Formula (IIb), Formula (IIc), Formula (IId), Formula (IIe), Formula (IIf), Formula (IIg), Formula (IIh), Formula (IIi), Formula (IIj), Formula (IIk), and Formula (IIl), or a pharmaceutically acceptable salt thereof, and ACMSD1 solution is then added. The effect of ACMS concentration on the enzyme activity is investigated by varying 3-hydroxyanthranilic acid (30H-HA) concentration in the pre-assay mixture. Kinetic parameters are calculated from the initial velocity data using a Lineweaver-Burk plot.
The inhibition activity of ACMSD1 of compounds disclosed herein was determined by measuring the conversion of 30H-Anthranilic Acid into product (i.e., ACMS) in a spectrophotometrical in vitro assay.
The pre-assay mixture consisting of 3-hydroxyanthranilic acid (30H-HA), 3-hydroxyanthranilic acid, 3,4-diOxygenase (HAO), and a dialyzed crude extract of E. coli BL21 (DE3) cells expressing the recombinant enzyme, was incubated at 25° C. with monitoring of the increase in absorbance at 360 nm due to the formation of ACMS from 30H-HA. After the reaction was completed within 2 mins, an aliquot of ACMSD1 solution (prepared and purified from Pichia Pastoris overexpressing the recombinant enzyme) was added, and the decrease in absorbance at 360 nm was followed at 15 second intervals. The effect of ACMS concentration on the enzyme activity was investigated by varying 30H-HA concentration from 2 to 20 µM. Kinetic parameters were calculated from the initial velocity data by using the Lineweaver-Burk plot.
The rate of the decrease in absorbance caused by ACMSD1 was calculated by subtracting that of the control reaction mixture without ACMSD from that described above. One unit of ACMSD activity was indicated as the amount of enzyme that converts 1 mmol of ACMS per minute at 25° C. The absence or a reduction of ACMSD1 activity (e.g., by using ACMSD inhibitors) results in a slow ACMS-spontaneous degradation (i.e., cyclization to form quinolic acid).
The enzymatic activity was determined at a HAA concentration of 10 μM in the presence of the compounds in Table 1 below. The compounds were tested at the concentration of about […] and 10 μM and the IC50 was calculated for compounds showing inhibitory activity higher than 500.
By IC50 is commonly meant the concentration needed to halve the response being measured. Higher therefore signals a need for much substance. Compound `COc1cccc(/C=C/c2[nH]c(=S)[nH]c(=O)c2C#N)c1OC(C)(C)C(=O)O` [I-8, (E)-2-(2-(2-(5-cyano-6-oxo-2-thioxo-1,2,3,6-tetrahydropyrimidin-4-yl)vinyl)-6-methoxyphenoxy)-2-methylpropanoic acid] registered an IC50 of 0.1 to 1 µM. The same measure for `N#Cc1c(-c2cccc(-c3cccc(C(=O)O)c3)c2)[nH]c(=S)[nH]c1=O` [I-16, 3′-(5-cyano-6-oxo-2-thioxo-1,2,3,6-tetrahydropyrimidin-4-yl)-[1,1′-biphenyl]-3-carboxylic acid]: 0.1 to 1 µM; for `CCOc1cc(/C=C/c2[nH]c(=O)[nH]c(=O)c2[N+](=O)[O-])ccc1OCC(=O)O` [I-17, (E)-2-(2-ethoxy-4-(2-(5-nitro-2,6-dioxo-1,2,3,6-tetrahydropyrimidin-4-yl)vinyl)henoxy)acetic acid]: 1 to 2 µM; for `COc1cccc(/C=C/c2[nH]c(=S)[nH]c(=O)c2C#N)c1OC(C)C(=O)O` (stereo not shown) [I-9, (E)-2-(2-(2-(5-cyano-6-oxo-2-thioxo-1,2,3,6-tetrahydropyrimidin-4-yl)vinyl)-6-methoxyphenoxy)propanoic acid]: 0.1 to 1 µM. `N#Cc1c(/C=C/c2cccc(OCC(=O)O)c2)[nH]c(=O)[nH]c1=O` [I-3, (E)-2-(3-(2-(5-cyano-2,6-dioxo-1,2,3,6-tetrahydropyrimidin-4-yl)vinyl)phenoxy)acetic acid] showed an IC50 of 1 to 2 µM.

On to `N#Cc1c(/C=C/c2ccccc2-c2cc(F)c(O)c(F)c2)[nH]c(=O)[nH]c1=O` [I-4, (E)-6-(2-(3′,5′-difluoro-4′-hydroxy-[1,1′-biphenyl]-2-yl)vinyl)-2,4-dioxo-1,2,3,4-tetrahydropyrimidine-5-carbonitrile], for which the IC50 lay in the range of 0.1 to 1 µM.

The compound `COc1cccc(/C=C/c2[nH]c(=O)[nH]c(=O)c2C#N)c1OCC(=O)O` [I-2, (E)-2-(2-(2-(5-cyano-2,6-dioxo-1,2,3,6-tetrahydropyrimidin-4-yl)vinyl)-6-methoxyphenoxy)acetic acid] yielded an IC50 of 0.1 to 1 µM. For `N#Cc1c(/C=C/c2ccccc2OCC(=O)O)[nH]c(=S)[nH]c1=O` [I-6, (E)-2-(2-(2-(5-cyano-6-oxo-2-thioxo-1,2,3,6-tetrahydropyrimidin-4-yl)vinyl)phenoxy)acetic acid] the value was 0.1 to 1 µM; for `COc1cccc(/C=C/c2nc(SC)[nH]c(=O)c2C#N)c1OCC(=O)O` [I-15, (E)-2-(2-(2-(5-cyano-2-(methylthio)-6-oxo-1,6-dihydropyrimidin-4-yl)vinyl)-6-methoxyphenoxy)acetic acid], 0.1 to 1 µM; for `COc1cccc(/C=C/c2[nH]c(=S)[nH]c(=O)c2C#N)c1` [I-10, (E)-6-(3-methoxystyryl)-4-oxo-2-thioxo-1,2,3,4-tetrahydropyrimidine-5-carbonitrile], 0.1 to 1 µM.
